Key:
[1] = Analyte stability in human plasma; assay type: physicochemical; conditions: for Freeze-thaw stability, Accuracy / Freeze-thaw stability, Mean concentration / Freeze-thaw stability, Difference: 3 cycles; for Freeze-thaw stability, Difference / Benchtop stability, Difference / Processed sample stability, Difference / Autosampler stability (5 °C), Difference / Long-term stability (−20 °C), Difference: vs freshly processed QC; for Benchtop stability, Accuracy / Benchtop stability, Mean concentration / Benchtop stability, Difference: 19 h; for Processed sample stability, Accuracy / Processed sample stability, Mean concentration / Processed sample stability, Difference: 23 h; for Autosampler stability (5 °C), Accuracy / Autosampler stability (5 °C), Mean concentration / Autosampler stability (5 °C), Difference: 112 h; for Long-term stability (−20 °C), Accuracy / Long-term stability (−20 °C), Mean concentration / Long-term stability (−20 °C), Difference: 27 days
Experimental: (§1) The stability of the analytes was studied under various storage and processing conditions. […] Short- and long-term stability studies of all analytes were conducted in human blank plasma and brain homogenate under several storage conditions. Analyte stability in biological matrices was analyzed using freshly prepared calibration standards and QC samples. The percentage difference between the stability and freshly processed QC was also assessed. Re-injection reproducibility was evaluated within the sample stability period in the autosampler. Analytes were considered stable if the accuracy at each level was ±15.0% of the nominal value. Additionally, the difference from corresponding comparison QC samples must be within ±15.0%.

[2] = Analyte stability in brain homogenate; assay type: physicochemical, human; conditions: for Freeze-thaw stability, Accuracy / Freeze-thaw stability, Mean concentration / Freeze-thaw stability, Difference: 3 cycles; for Freeze-thaw stability, Difference / Benchtop stability, Difference / Processed sample stability, Difference / Autosampler stability (5 °C), Difference / Long-term stability (−20 °C), Difference: vs freshly processed QC; for Benchtop stability, Accuracy / Benchtop stability, Mean concentration / Benchtop stability, Difference: 6 h; for Processed sample stability, Accuracy / Processed sample stability, Mean concentration / Processed sample stability, Difference: 22 h; for Autosampler stability (5 °C), Accuracy / Autosampler stability (5 °C), Mean concentration / Autosampler stability (5 °C), Difference: 96 h
Experimental: as §1

[3] = Equilibrium dialysis, fraction unbound in plasma; assay type: in vitro ADME, human; conditions: for fraction unbound at 16 h: pH 7.4, 16 h equilibrium dialysis
Experimental: (§2) Equilibrium dialysis was employed to measure the fraction unbound of analytes in plasma, brain, and brain tumor tissue homogenates using 96-well DispoEquilibrium Dialyzer plates with a 10 kDa cut-off regenerated cellulose membrane. Dialysis was performed using 180 μL of human plasma or tissue homogenate against an equal volume of PBS (pH 7.4) in a dual-plate rotator (Harvard Apparatus, Holliston, MA, USA). Equilibrium time was initially optimized by analyzing samples after 2, 4, 6, 8, 16, and 24 h of dialysis at concentrations of 20 and 200 nM in human plasma and brain homogenate. The dialysates were collected and processed as described in Sections 2.3.2 and 2.3.3. The recovery of analytes was calculated as the ratio of analyte concentration after dialysis (sum of concentrations found in PBS and matrix fractions) to the total concentration to ensure the reliability and reproducibility of the assay. The experiments were repeated at least three times, and each sample in triplicate and average fraction unbound values were determined.
(§3) The fraction unbound in plasma (fu, plasma) and tissue homogenate (fu, hom) was evaluated as the analyte concentration ratio of post-dialysis PBS (cu) to post-dialysis plasma (cp, Eq. (1)) or homogenate (chom, Eq. (2)).(1) fu,plasma =cu/cp (2) fu,hom =cu/chom
(§4) Unbound drug levels in the actual plasma and brain tumor tissue were measured using dialysis for 16 h to reach equilibrium. The mean of fraction unbound values determined in five patient samples was calculated.

[4] = Equilibrium dialysis, fraction unbound in brain homogenate; assay type: in vitro ADME, human
Experimental: as §2, §3
(§5) The fraction unbound in the actual tissue (fu, tissue) was obtained by incorporating the unbound fraction in the tissue homogenate (fu, hom) and the dilution factor (Df) into Eq. (3).(3) fu,tissue = fu,hom/[Df - (Df - 1)fu,hom]

[5] = Equilibrium dialysis, fraction unbound in patient brain tumor tissue; assay type: in vitro ADME; conditions: human, five patients, 16 h equilibrium dialysis
Experimental: as §2, §3, §5, §4
The validated bioanalytical method was employed to investigate analytes pharmacokinetics in the plasma, brain tumor, and CSF in GBM patients (ClinicalTrials.gov identifier: NCT04391595). The protocol was reviewed and approved by the Institutional Review Board of the Barrow Neurological Institute, St. Joseph's Hospital and Medical Center (Phoenix, AZ, USA). All patients enrolled in the trial provided written informed consent. […] Blood, CSF, and GBM tissue (including gadolinium-contrast enhancing and non-enhancing regions) samples were obtained intra-operatively from each patient on the […] on the planned operation day. Blood was centrifuged at 4 °C and 3,000 r/min for 10 min; plasma was subsequently collected. Brain tumors were resected 7–9 h after the last dose was administered. Once resected, the tissue samples were rinsed with PBS, paper dried, and freshly frozen in liquid nitrogen. The samples were then stored at −80 °C in a freezer for later analysis.

Freeze-thaw stability, Accuracy ([1]; HQC 400.0 nM): 100.6% | Freeze-thaw stability, Mean concentration ([1]; HQC 400.0 nM): 402.5 nM | Freeze-thaw stability, Difference ([1]; HQC 400.0 nM): 3.2% | Freeze-thaw stability, Accuracy ([1]; LQC 0.6 nM): 101.0% | Freeze-thaw stability, Mean concentration ([1]; LQC 0.6 nM): 0.606 nM | Freeze-thaw stability, Difference ([1]; LQC 0.6 nM): 5.3% | Benchtop stability, Accuracy ([1]; HQC 400.0 nM): 102.3% | Benchtop stability, Mean concentration ([1]; HQC 400.0 nM): 409.3 nM | Benchtop stability, Difference ([1]; HQC 400.0 nM): 2.8% | Benchtop stability, Accuracy ([1]; LQC 0.6 nM): 97.7% | Benchtop stability, Mean concentration ([1]; LQC 0.6 nM): 0.586 nM | Benchtop stability, Difference ([1]; LQC 0.6 nM): 3.2% | Processed sample stability, Accuracy ([1]; HQC 400.0 nM): 97.7% | Processed sample stability, Mean concentration ([1]; HQC 400.0 nM): 390.7 nM | Processed sample stability, Difference ([1]; HQC 400.0 nM): 2.2% | Processed sample stability, Accuracy ([1]; LQC 0.6 nM): 91.1% | Processed sample stability, Mean concentration ([1]; LQC 0.6 nM): 0.547 nM | Processed sample stability, Difference ([1]; LQC 0.6 nM): −3.4% | Autosampler stability (5 °C), Accuracy ([1]; HQC 400.0 nM): 95.4% | Autosampler stability (5 °C), Mean concentration ([1]; HQC 400.0 nM): 381.8 nM | Autosampler stability (5 °C), Difference ([1]; HQC 400.0 nM): 1.5% | Autosampler stability (5 °C), Accuracy ([1]; LQC 0.6 nM): 92.5% | Autosampler stability (5 °C), Mean concentration ([1]; LQC 0.6 nM): 0.555 nM | Autosampler stability (5 °C), Difference ([1]; LQC 0.6 nM): 3.1% | Long-term stability (−20 °C), Accuracy ([1]; HQC 400.0 nM): 104.5% | Long-term stability (−20 °C), Mean concentration ([1]; HQC 400.0 nM): 418.1 nM | Long-term stability (−20 °C), Difference ([1]; HQC 400.0 nM): 3.4% | Long-term stability (−20 °C), Accuracy ([1]; LQC 0.6 nM): 101.5% | Long-term stability (−20 °C), Mean concentration ([1]; LQC 0.6 nM): 0.609 nM | Long-term stability (−20 °C), Difference ([1]; LQC 0.6 nM): −2.2% | Freeze-thaw stability, Accuracy ([2]; HQC 400.0 nM): 103.2% | Freeze-thaw stability, Mean concentration ([2]; HQC 400.0 nM): 412.9 nM | Freeze-thaw stability, Difference ([2]; HQC 400.0 nM): 1.1% | Freeze-thaw stability, Accuracy ([2]; LQC 0.6 nM): 101.4% | Freeze-thaw stability, Mean concentration ([2]; LQC 0.6 nM): 0.608 nM | Freeze-thaw stability, Difference ([2]; LQC 0.6 nM): −7.9% | Benchtop stability, Accuracy ([2]; HQC 400.0 nM): 101.7% | Benchtop stability, Mean concentration ([2]; HQC 400.0 nM): 406.7 nM | Benchtop stability, Difference ([2]; HQC 400.0 nM): −1.5% | Benchtop stability, Accuracy ([2]; LQC 0.6 nM): 110.2% | Benchtop stability, Mean concentration ([2]; LQC 0.6 nM): 0.661 nM | Benchtop stability, Difference ([2]; LQC 0.6 nM): 0.2% | Processed sample stability, Accuracy ([2]; HQC 400.0 nM): 102.3% | Processed sample stability, Mean concentration ([2]; HQC 400.0 nM): 409.3 nM | Processed sample stability, Difference ([2]; HQC 400.0 nM): −0.9% | Processed sample stability, Accuracy ([2]; LQC 0.6 nM): 112.3% | Processed sample stability, Mean concentration ([2]; LQC 0.6 nM): 0.674 nM | Processed sample stability, Difference ([2]; LQC 0.6 nM): 2.1% | Autosampler stability (5 °C), Accuracy ([2]; HQC 400.0 nM): 105.2% | Autosampler stability (5 °C), Mean concentration ([2]; HQC 400.0 nM): 420.9 nM | Autosampler stability (5 °C), Difference ([2]; HQC 400.0 nM): 3.3% | Autosampler stability (5 °C), Accuracy ([2]; LQC 0.6 nM): 111.2% | Autosampler stability (5 °C), Mean concentration ([2]; LQC 0.6 nM): 0.667 nM | Autosampler stability (5 °C), Difference ([2]; LQC 0.6 nM): 4.4% | Long-term stability (−20 °C), Mean concentration ([2]; 39 days, HQC 400.0 nM): 422.7 nM | Long-term stability (−20 °C), Difference ([2]; 39 days, HQC 400.0 nM): 3.5% | Long-term stability (−20 °C), Accuracy ([2]; 39 days, LQC 0.6 nM): 103.6% | Long-term stability (−20 °C), Mean concentration ([2]; 39 days, LQC 0.6 nM): 0.622 nM | Long-term stability (−20 °C), Difference ([2]; 39 days, LQC 0.6 nM): −5.9% | fraction unbound at 16 h ([3]; human, plasma of five GBM patients, read-out: Fraction unbound (fu), Plasma (patients)): 0.406 | fraction unbound at 16 h ([3]; pooled human plasma spiked at 20 and 200 nM, read-out: Fraction unbound (fu), Plasma (pooled)): 0.372 | Plasma protein binding (in words) ([3]; pooled human plasma): modest plasma protein binding | fraction unbound at 16 h ([4]; pH 7.4, human brain homogenate spiked at 20 and 200 nM, 16 h equilibrium dialysis, read-out: Fraction unbound (fu), Brain): 0.065 | Plasma protein binding compared to binding to brain tissue components (ratio) ([4]; spiked pooled human plasma vs human brain homogenate): at least 5.5 fold | fraction unbound at 16 h ([5]; pH 7.4, gadolinium contrast enhancing GBM region, read-out: Fraction unbound (fu), GBM (E)): 0.109 | fraction unbound at 16 h ([5]; pH 7.4, gadolinium contrast non-enhancing GBM region, read-out: Fraction unbound (fu), GBM (NE)): 0.06
Compound: Cn1nccc1Nc1nccc(-c2cc3c(s2)C(C)(C)N(CCN2CCOCC2)C3=O)n1 [LY3214996]
